# Results: patent publication US9655887B2, “Pharmaceutical composition and the use thereof, and application regime of said pharmaceutical composition for on-demand contraception” (BAYER PHARMA AKTIENGESELLSCHAFT, priority 2013, dated 2017)
# Marks after values point to notes of the source that are not given here.
# Columns and labels:
# [1] = molecular target: EP2 subtype of the human PGE2 receptor (hEP2 receptor) (Homo sapiens, UniProt P43116); assay: cAMP antagonism test, human prostaglandin E2 (subtype EP2) receptor signal; format: cell-based
# Chain of EP2 subtype of the human PGE2 receptor (hEP2 receptor) (P43116 whole entry): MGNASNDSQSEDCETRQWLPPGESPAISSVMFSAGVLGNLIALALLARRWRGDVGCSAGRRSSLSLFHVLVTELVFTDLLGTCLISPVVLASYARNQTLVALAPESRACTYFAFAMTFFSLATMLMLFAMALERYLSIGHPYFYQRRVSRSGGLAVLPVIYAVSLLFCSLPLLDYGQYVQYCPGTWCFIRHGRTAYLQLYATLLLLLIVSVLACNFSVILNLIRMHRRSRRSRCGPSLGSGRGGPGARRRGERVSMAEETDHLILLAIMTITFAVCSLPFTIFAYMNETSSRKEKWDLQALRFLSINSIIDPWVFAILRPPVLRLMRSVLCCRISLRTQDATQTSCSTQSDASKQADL
# In short: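 Cells (625000 cells/ml, mixed with cAMP-d2) were preincubated 20 min at RT with compound ([…]). They were then stimulated 60 min at RT with a 3× PGE2 solution (1.5 nM) in PBS-IBMX and lysed for 20 min. cAMP was read by HTRF as the 665/620 nm ratio ×10000, with antagonism seen as a rise in FRET signal.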
# [2] = test system: fertility of the female rat; assay: Single administration of EP2 receptor antagonists and COX inhibitors alone or in combination, fertility of the rat (implantation sites); format: in vivo, female Han Wistar rats
# Protocol: 6. Effect of a Single Administration of EP2 Receptor Antagonists and COX Inhibitors Alone or in Combination on the Fertility of the Rat
# In the experiments below, female Han Wistar rats having a weight of 200-270 g were used. The animals were kept in Makrolon cages in rooms with controlled lighting (12 hours of darkness; 12 hours of light), fed with a standard diet and provided with water ad libitum.
# EP2 receptor antagonists were dissolved in benzyl benzoate/castor oil (1+4 v/v), and the dose was administered in a volume of 1 ml/kg of body weight s.c. Optionally, EP2 receptor antagonists were also administered orally in the same vehicle as the COX inhibitors (see below). […]
# The COX inhibitors were suspended in a carrier liquid (85 mg of Myrj®53 polyoxyl(50)stearate; CAS No. 9004-99-3) in 100 ml of 0.9% w/v NaCl solution), and the dose corresponding to the treatment group was administered in a volume of 2 ml/kg of body weight.
# Prior to the start of the experiment, two cycles were observed using vaginal swabs. Only animals having a regular 4-day cycle were used in the experiment. The animals were randomized to the treatment groups.
# The animals were treated once in the proestrus, the day in the cycle when the LH peak occurs in the evening, with the test substances either alone or in combination. On the evening of the proestrus, the female animals mated with a male rat. Successive mating was confirmed by detection of vaginal sperms in the vaginal swab the next morning. The effect on fertility was determined 9-15 days after mating by the number of implantation sites of the animals. […]
# [3] = molecular target: EP4 subtype of the human PGE2 receptor (hEP4) (Homo sapiens, UniProt P35408); assay: cAMP antagonism test, human prostaglandin E2 (subtype EP4) receptor signal; format: cell-based; settings: selectivity towards hEP4, IC50 measured by cAMP antagonism test
# Chain of EP4 subtype of the human PGE2 receptor (hEP4) (P35408 whole entry): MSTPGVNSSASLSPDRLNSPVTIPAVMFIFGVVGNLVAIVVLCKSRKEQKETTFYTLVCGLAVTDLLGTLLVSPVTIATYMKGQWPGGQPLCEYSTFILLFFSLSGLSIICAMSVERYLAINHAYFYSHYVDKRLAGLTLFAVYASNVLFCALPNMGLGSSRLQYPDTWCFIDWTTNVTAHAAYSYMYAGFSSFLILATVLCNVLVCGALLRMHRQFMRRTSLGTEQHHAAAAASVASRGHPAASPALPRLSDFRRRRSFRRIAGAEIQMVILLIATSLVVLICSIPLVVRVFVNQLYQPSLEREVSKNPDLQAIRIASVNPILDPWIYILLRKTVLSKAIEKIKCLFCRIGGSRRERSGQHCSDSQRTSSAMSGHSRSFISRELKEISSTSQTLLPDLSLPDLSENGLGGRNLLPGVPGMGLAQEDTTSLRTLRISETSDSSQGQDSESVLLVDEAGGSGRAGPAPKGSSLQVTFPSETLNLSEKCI
# Excerpt: 2. Detection of Antagonism to the Human Prostaglandin E2 (Subtype EP4) Receptor Signal
# The binding of PGE2 to the EP4 subtype of the human PGE2 receptor induces the activation of membrane-located adenylate cyclases and leads to the formation of cAMP. In the presence of the phosphodiesterase inhibitor IBMX, the cAMP accumulated owing to this stimulation and released by cell lysis is used in a competitive detection method. In this test, the cAMP present in the lysate competes with a fluorescence-labelled cAMP (cAMP-d2) for binding to an Eu cryptate-labelled anti-cAMP antibody.
# (§1) In the absence of cellular cAMP a maximal signal is produced, which is attributable to the binding of this cAMP-d2 molecule to the antibody. After excitation of the […] at 337 nm, there is a fluorescence resonance energy transfer (FRET) to the Eu cryptate molecules of the anti-cAMP antibody (labelled therewith), followed by a long-lasting emission signal at 665 nm (and at […]). Both signals are measured in a suitable measurement instrument with a time delay, i.e. after decay of the background fluorescence. Any increase in the low FRET signal caused by prostaglandin E2 administration (measured as well ratio change=emission665nm/emission620nm*10000) indicates the action of antagonists.
# 2.2.1. Test for Antagonism (Data Per Well of a 384-Well Plate):
# To a test plate with the substance solutions already added (0.05 μl; 100% DMSO, concentration range from 0.8 nM-16.5 uM) were added 4 μl of a cAMP-d2/cell suspension (312500 cells/ml). After a 20-minute preincubation at room temperature (RT), 2 μl of a 3×PGE2 solution (0.3 nM, in PBS-IBMX) were added and incubated in the presence of the agonist for a further 60 mins at RT (volume: ˜6 μl). Next the reaction was stopped by addition of 2 μl of lysis buffer and incubated for a further 20 mins at RT before the actual measurement (volume: ˜8 μl).
# human PGD receptor (hDP) = molecular target: T1, human PGD receptor (hDP) (Homo sapiens, UniProt Q13258); assay: cAMP antagonism test, human prostaglandin D receptor signal; format: cell-based; settings: selectivity towards hDP, IC50 measured by cAMP antagonism test
# T1 sequence (Q13258 1-359): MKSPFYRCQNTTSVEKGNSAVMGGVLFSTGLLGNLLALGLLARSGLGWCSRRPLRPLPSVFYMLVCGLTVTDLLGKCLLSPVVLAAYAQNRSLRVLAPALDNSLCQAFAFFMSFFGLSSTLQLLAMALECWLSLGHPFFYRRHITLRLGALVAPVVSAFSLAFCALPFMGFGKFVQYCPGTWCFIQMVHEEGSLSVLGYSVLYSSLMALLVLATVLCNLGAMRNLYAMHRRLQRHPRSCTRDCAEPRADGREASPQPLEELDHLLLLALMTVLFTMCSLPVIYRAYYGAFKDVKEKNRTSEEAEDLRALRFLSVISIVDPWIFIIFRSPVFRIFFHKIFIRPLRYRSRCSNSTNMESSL
# Excerpt: 3. Detection of Antagonism to the Human Prostaglandin D Receptor Signal
# The binding of prostaglandin D2 to the human PGD receptor induces the activation of membrane-located adenylate cyclases and leads to the formation of cAMP. In the presence of the phosphodiesterase inhibitor IBMX, the cAMP accumulated owing to this stimulation and released by cell lysis is used in a competitive detection method. In this test, the cAMP present in the lysate competes with a fluorescence-labelled cAMP (cAMP-d2) for binding to an Eu cryptate-labelled anti-cAMP antibody.
# as §1, with “cellular cAMP,” for “cellular cAMP”
# 3.2.1. Test for Antagonism (Data Per Well of a 384-Well Plate):
# To a test plate with the substance solutions already added (0.05 μl; 100% DMSO, concentration range from 0.8 nM-16.5 nM) were added 4 μl of a cAMP-d2/cell suspension (625000 cells/ml). After a 20-minute preincubation at room temperature (RT), 2 μl of a 3×PGD2 solution (6 nM, in PBS-IBMX) were added and incubated in the presence of the agonist for a further 30 mins at RT (volume: ˜6 μl). Next the reaction was stopped by addition of 2 μl of lysis buffer and incubated for a further 20 mins at RT before the actual measurement (volume: ˜8 μl).
# [4] = Table 6.4, single administration in proestrus, E16 4 mg/animal, 17:00, data of n = 4 animals
# [5] = Table 6.5, single administration in proestrus, E16 0.25 mg/animal, 17:00
# [6] = Table 6.5, single administration in proestrus, E16 0.5 mg/animal, 17:00
# [7] = Table 6.5, single administration in proestrus, E16 1 mg/animal, 17:00
# [8] = Table 6.5, single administration in proestrus, E16 2 mg/animal, 17:00, data of n = 4 animals
# [9] = Table 6.5, single administration in proestrus, E16 4 mg/animal, 17:00
# [10] = proestrus, oral administration of EP2 receptor antagonist 2 mg/animal, divided to 16:00 and 17:00
# [11] = single administration in proestrus, E16 1 mg/animal, 16:00
# [12] = single administration in proestrus, E16 2 mg/animal, 16:00
# [13] = single administration in proestrus, E16 4 mg/animal, 7:00
# [14] = single administration in proestrus, E16 4 mg/animal, 13:00, data of n = 5 animals
# [15] = single administration in proestrus, E16 4 mg/animal, 16:00
# [16] = single administration in proestrus, E16 8 mg/animal, 16:00, data of n = 5 animals
smiles,measurement,setting,value
"COCCNC(=O)c1ccc2nn(CC3CCN(C(=O)c4ccc(Oc5ccc(C(F)(F)F)cc5)cc4)CC3)cc2c1C [Example E16, N-(2-methoxyethyl)-4-methyl-2-[(1-{4-[4-(trifluoromethyl)phenoxy]benzoyl}piperidin-4-yl)methyl]-2H-indazole-5-carboxamide]",IC50,[1],> 50 nM
same,Absolute implantations number of 6 animals,[2]; [4],22**
same,Implantations per animal (mean ± SD),[2]; [4],5.5 ± 5.4
same,Absolute implantations number of 6 animals,[2]; [5],78
same,Implantations per animal (mean ± SD),[2]; [5],13 ± 2.3
same,Absolute implantations number of 6 animals,[2]; [6],60
same,Implantations per animal (mean ± SD),[2]; [6],10 ± 2.8
same,Absolute implantations number of 6 animals,[2]; [7],42
same,Implantations per animal (mean ± SD),[2]; [7],7 ± 5.4
same,Absolute implantations number of 6 animals,[2]; [8],30**
same,Implantations per animal (mean ± SD),[2]; [8],7.5 ± 1.7
same,Absolute implantations number of 6 animals,[2]; [9],32
same,Implantations per animal (mean ± SD),[2]; [9],5.3 ± 4.5
same,Absolute implantations number of 6 animals,[2]; [10],63
same,Implantations per animal (mean ± SD),[2]; [10],10.5 ± 1.5
same,Absolute implantations number of 6 animals,[2]; [11],62
same,Implantations per animal (mean ± SD),[2]; [11],10.3 ± 2.5
same,Absolute implantations number of 6 animals,[2]; [12],71
same,Implantations per animal (mean ± SD),[2]; [12],11.8 ± 2.1
same,Absolute implantations number of 6 animals,[2]; [13],54
same,Implantations per animal (mean ± SD),[2]; [13],9.0 ± 3.4
same,Absolute implantations number of 6 animals,[2]; [14],49*
same,Implantations per animal (mean ± SD),[2]; [14],8.2 ± 3.1
same,Absolute implantations number of 6 animals,[2]; [15],50
same,Implantations per animal (mean ± SD),[2]; [15],8.3 ± 3.4
same,Absolute implantations number of 6 animals,[2]; [16],43*
same,Implantations per animal (mean ± SD),[2]; [16],8.6 ± 2.8
"Cc1c(C(=O)NCC2CCCCO2)ccc2nn(CC3CN(C(=O)c4ccc(Cl)cc4)C3)cc12 (single isomer, unassigned) [Example 146, (S or R)-2-{[1-(4-chlorobenzoyl)azetidin-3-yl]methyl}-4-methyl-N-(3,4,5,6-tetrahydro-2H-pyran-2-ylmethyl)-2H-indazole-5-carboxamide]",Selectivity hEP2/hEP4,[3],xxx (xxx >100)
same,Selectivity hEP2/hDP,human PGD receptor (hDP),xxx (xxx >100)
"Cc1c(C(=O)NCC2COCCO2)ccc2nn(CC3CN(C(=O)c4ccc(Cl)cc4)C3)cc12 (single isomer, unassigned) [Example 143, (S or R)-2-{[1-(4-chlorobenzoyl)azetidin-3-yl]methyl}-N-(1,4-dioxan-2-yl-methyl)-4-methyl-2H-indazole-5-carboxamide]",Selectivity hEP2/hEP4,[3],xxx (xxx >100)
same,Selectivity hEP2/hDP,human PGD receptor (hDP),xxx (xxx >100)
"Cc1c(C(=O)NCC2COCCO2)ccc2nn(CC3CCN(C(=O)c4ccc(Oc5ccc(C(F)(F)F)cc5)cc4)CC3)cc12 (single isomer, unassigned) [Example 419, (R or S)—N-(1,4-dioxan-2-ylmethyl)-4-methyl-2-[(1-{4-[4-(trifluoromethyl)-phenoxy]benzoyl}piperidin-4-yl)methyl]-2H-indazole-5-carboxamide]",Selectivity hEP2/hEP4,[3],xxx (xxx >100)
same,Selectivity hEP2/hDP,human PGD receptor (hDP),xxx (xxx >100)
"COC(C)CNC(=O)c1ccc2nn(CC3CN(C(=O)c4ccc(Cl)cc4)C3)cc2c1C (single isomer, unassigned) [Example 140, (S or R)-2-{[1-(4-chlorobenzoyl)azetidin-3-yl]methyl}-N-(2-methoxypropyl)-4-methyl-2H-indazole-5-carboxamide]",Selectivity hEP2/hEP4,[3],xxx (xxx >100)
same,Selectivity hEP2/hDP,human PGD receptor (hDP),xxx (xxx >100)
"Cc1c(C(=O)NCC2CCCCO2)ccc2nn(CC3CN(C(=O)c4ccc(Cl)cc4)C3)cc12 (single isomer, unassigned) [Example 145, (R or S)-2-{[1-(4-chlorobenzoyl)azetidin-3-yl]methyl}-4-methyl-N-(3,4,5,6-tetrahydro-2H-pyran-2-ylmethyl)-2H-indazole-5-carboxamide]",Selectivity hEP2/hEP4,[3],xxx (xxx >100)
same,Selectivity hEP2/hDP,human PGD receptor (hDP),xxx (xxx >100)
"Cc1c(C(=O)NCC2CCCCO2)ccc2nn(CC3CCN(C(=O)c4ccc(Oc5ccc(C(F)(F)F)cc5)cc4)CC3)cc12 (single isomer, unassigned) [Example 417, (S or R)-4-methyl-N-(3,4,5,6-tetrahydro-2H-pyran-2-ylmethyl)-2-[(1-{4-[4-(trifluoromethyl)phenoxy]benzoyl}piperidin-4-yl)methyl]-2H-indazole-5-carboxamide]",Selectivity hEP2/hEP4,[3],xxx (xxx >100)
same,Selectivity hEP2/hDP,human PGD receptor (hDP),xxx (xxx >100)
